Values joined by “and” are separate entries in the source; they are usually repeats but may differ in a detail not shown here. Equal values may be shown once.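 Dose response: 5 concentrations. Exposure: 48 h. Format: 96-well plates. Endpoint: linear interpolation; highest concentration if not reached. GI50 is the concentration that inhibits growth by half. The concentration for full growth arrest is given as TGI.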
Tests used:
Experiment in all cases: inhibition of tumour cell growth, NCI panel, 48 h
HCT-15 colon = test system: HCT-15 colon
DU-145 prostate = test system: DU-145 prostate
HS 578T breast = test system: HS 578T breast
NCI-H226 lung = test system: NCI-H226 lung
K-562 leukemia = test system: K-562 leukemia
SK-MEL-28 melanoma = test system: SK-MEL-28 melanoma
SW-620 colon = test system: SW-620 colon
NCI-H522 lung = test system: NCI-H522 lung

SMILES	TGI (HCT-15 colon) [µM]	TGI (DU-145 prostate) [µM]	TGI (HS 578T breast) [µM]	TGI (NCI-H226 lung) [µM]	TGI (K-562 leukemia) [µM]	TGI (SK-MEL-28 melanoma) [µM]	TGI (SW-620 colon) [µM]	TGI (NCI-H522 lung) [µM]	GI50 (HCT-15 colon)	GI50 (DU-145 prostate)	GI50 (HS 578T breast)	GI50 (NCI-H226 lung)	GI50 (K-562 leukemia)	GI50 (SK-MEL-28 melanoma) [µM]	GI50 (SW-620 colon)	GI50 (NCI-H522 lung)
Oc1ccc(C=Nc2ccccc2O)cc1	> 100	31.6	> 100	> 100	> 100	> 100	> 100	> 100	–	–	–	–	–	–	–	–
CNC(=O)c1c(C)oc2cc(Oc3ncnc4cc(OC)c(OC)cc34)ccc12	> 100	> 100	> 100	> 100	> 100	> 100	> 100	> 100	> 100 µM	> 100 µM	4.18 µM	2.47 µM	> 100 µM	> 100	> 100 µM	> 100 µM
COc1c/c(=C2\C=c3ccccc3=N2)[nH]/c1=C\c1[nH]c(C)cc1C	4.33	> 81.4	0.433	> 100	8.33	26.3	51.4	> 41.9	< 0.0225 µM	0.0174 µM	0.0131 µM	16.5 µM	0.0685 µM	0.103	< 0.01 µM	0.493 µM
CC[C@H](C)[C@H](NC(=O)[C@H]1CCCCN1C)C(=O)N(C)[C@H](C[C@@H](OC(C)=O)c1cccc(C(=O)N[C@@H](Cc2ccccc2)C[C@H](C)C(=O)OC)n1)C(C)C	9.64	> 25	> 25	> 25	> 25	–	> 25	0.00894	0.00815 µM and 0.00702 µM	0.00282 µM and 0.0025 µM	0.0423 µM and 0.00613 µM	0.456 µM and 0.0514 µM	0.00243 µM and 0.0025 µM	0.00937	0.00317 µM and 0.0025 µM	0.00154 µM and 0.0025 µM
Cc1c(C)n(CCCN2CCN(C)CC2)c2ccc(Oc3cccc(C(=O)N4CCN(CCc5ccc(F)cc5)CC4)c3)cc12	3.09	3.6	4.51	–	–	3.24	3.28	–	1.59 µM	1.86 µM	2.05 µM	–	–	1.78	1.77 µM	–
COc1ccc(/C=C\c2cc(OC)c(OC)c(OC)c2)cc1OCC(=O)Nc1nc2ccc(F)cc2s1	> 100	> 100	> 100	> 100	> 100	> 100	> 100	> 100	8.19 µM	8.97 µM	> 100 µM	5.6 µM	3.62 µM	> 100	65.1 µM	2.92 µM
C[C@@H](Oc1cc(-n2cnc3ccc(OC4CCN(C)CC4)cc32)sc1C(N)=O)c1ccccc1Cl	3.55	–	0.597	5.49	4.9	–	3.48	5.03	0.0827 µM	–	0.0419 µM	0.289 µM	0.0102 µM	–	0.00875 µM	0.0117 µM
Cc1cc2nc(NCCN)n(Cc3ccc(F)c(Cl)c3)c2cc1C	19.1	27.4	28.2	39.7	6.97	6.63	10.8	35.1	5.74 µM	14.1 µM	11.8 µM	19.8 µM	2.57 µM	2.47	3.31 µM	19.5 µM
Clc1c(Cl)[n+](Cc2ccc3ccccc3c2)cn1Cc1ccc2ccccc2c1	3.62	3.01	4.41	–	3.73	3.04	3	2.67	1.82 µM	1.53 µM	1.71 µM	–	1.71 µM	1.63	1.47 µM	1.12 µM
CCc1cccc(C(C)C)c1NC(=O)C(=O)C1C(=O)Nc2ccccc2S1=O (stereo not drawn)	> 100	> 100	> 100	> 100	–	> 100	> 100	> 100	–	–	–	–	–	–	–	–
O=C1Nc2c(ccc(Cl)c2Cl)/C1=C/c1cc(Br)c(O)c(Br)c1	35.3	> 100	46.4	60.4	> 100	> 100	> 100	> 28.6	4.65 µM	14.3 µM	4.32 µM	11.5 µM	5.57 µM	7.07	4.67 µM	3.06 µM
O=C(O)c1cc(-c2ccc3cc4c(cc3c2)OCO4)nc2ccccc12	> 100	> 100	> 100	> 100	> 100	> 100	> 100	> 100	–	–	–	–	–	–	–	–
Nc1nc(/C=C\c2ccc([N+](=O)[O-])s2)nc(N2CCN(c3ccccc3)CC2)n1	28.3	51.4	14.6	36.4	49.5	47.1	27.9	31.5	14.6 µM	21.9 µM	0.54 µM	15.2 µM	15.3 µM	24.9	6.3 µM	16 µM
COc1ccc2c(c1)C(=O)c1c-2n(CCCN(C)C)c(=O)c2ccccc12	3.95	2.82	5.99	2.59	17.5	8.12	3.93	4.04	0.25 µM	0.249 µM	0.624 µM	0.413 µM	0.287 µM	1.77	0.16 µM	0.188 µM
COc1ccc2ncn(-c3cc(O[C@H](C)c4ccccc4C(F)(F)F)c(C(N)=O)s3)c2c1	17.2	0.242	7.18	12.4	19.4	8.54	6.01	2.51	0.134 µM	0.0784 µM	0.31 µM	3.07 µM	0.109 µM	2.64	0.0749 µM	0.0995 µM
O=C(NCCCCN1CCOCC1)c1cc2ccccc2o1	> 100	> 100	> 100	> 100	> 100	> 100	> 100	> 100	> 100 µM	> 100 µM	> 100 µM	> 100 µM	> 100 µM	> 100	> 100 µM	> 100 µM
